For experiment [1], the system named is IL-8. As to conditions: for IL-8: PBMC, LPS 100 ng/ml, 24 hours, supernatant. How it is done: (§1) The capability of bindarit to reduce production of MCP-1 by leucocytes (PBMC) stimulated by LPS was evaluated. White blood cells were isolated by centrifugation on a Ficoll gradient and then stimulated with LPS (100 ng/ml) for 24 hours in the presence or absence of scalar concentrations of bindarit. The supernatant fluid was collected at the end and levels of MCP-1 were measured by means of a specific immunoenzymatic test.

Experiment [2] has as its system MCP-1. As to conditions: for MCP-1: PBMC, LPS 100 ng/ml, 24 hours, supernatant. How it is done:
as §1

The test system of experiment [3] is mouse air pouch. Conditions: for Exudate / Leucocytes: bindarit 0.5% in diet for 18 days. How it is done:
The action of bindarit was studied in an experimental model in the mouse, the said model being characterized by production of MCP-1, cell infiltration and formation of exudate. Mice were fed ad libitum with a standard diet for rodents or with the same diet with addition of bindarit (0.5%) for 18 days. On the twelfth day, under ether anaesthesia, sterile air (5 ml) was injected under the dorsal skin of the mice to form a sac. On the fifteenth day, again under ether anaesthesia, further sterile air (5 ml) was injected into the pre-formed sac. On the eighteenth day, a sterile physiological solution (1 ml) was injected into the sac thus obtained, or an irritant (1 ml). The said irritant was carrageen (1%) or IL-1 (40 ng). After 5 hours for IL-1, or 24 hours for carrageen, the mice were sacrificed by asphyxia with CO2. The exudate which had developed was collected and used for the leucocyte count and for measurement of the mediators produced.

Setting [4] is: IL-1, share of cells in exudate, bindarit 0.5% in diet.

Molecules are shown by their SMILES. Read-outs that look alike come from different tables or passages of the source.

Consider `CC(C)(OCc1nn(Cc2ccccc2)c2ccccc12)C(=O)O` [Bindarit], for which the IL-8 was 30 ± 5.20 ng/mL in experiment [1] (bindarit 25 μg/ml), 37 ± 5.36 ng/mL in experiment [1] (bindarit 50 μg/ml) and 27 ± 5.8 ng/mL in experiment [1] (bindarit 100 μg/ml). The “levels of IL-8 produced (in words)” value in experiment [1] (summary of Table 1) is “without substantially influencing”. Also, the results for the MCP-1 in experiment [2] (bindarit 25 μg/ml), in experiment [2] (bindarit 50 μg/ml) and in experiment [2] (bindarit 100 μg/ml) were 1.5 ± 0.38 ng/mL, 1.6 ± 0.18 ng/mL and 0.8 ± 0.04 ng/mL, respectively. Also, the “production of MCP-1 induced by LPS (in words)” value in experiment [2] (summary of Table 1) is “significantly reduces”. Moreover, the Exudate in experiment [3] (IL-1 (40 ng), 5 hours) was found to be 1.00 ± 0.01 mL; in experiment [3] (carrageen (1%), 24 hours), 0.90 ± 0.08 mL. Also, the Leucocytes was found to be 7.5 ± 2.21 in experiment [3] (IL-1 (40 ng), 5 hours) and 4.5 ± 0.64 in experiment [3] (carrageen (1%), 24 hours). Also, the Monocytes in experiment [3] (setting [4]) is reported as 6%. In experiment [3] (setting [4]), the Polymorphonucleates is 94%. In experiment [3] (summary of Table 2), the “number of infiltrated cells (leucocytes) (in words)” value is recorded as “significant reduction”. The “volume of exudate collected (in words)” value in experiment [3] (summary of Table 2) is given as “without presenting a reduction”. Moreover, the “percentage of monocytes attracted in the sac (in words)” value in experiment [3] (summary of Table 3) is “reduction”.

Source of the values: patent US6534534B1, “Pharmaceutical composition active in reducing production of MCP-1 protein” (Aziende Chimiche Riunite Angelini Francesco A.C.R.A.F. …, priority 1997, dated 2003).
